In experiment [1] the target is T1, HIV reverse transcriptase (Human immunodeficiency virus type 1 group M subtype B, UniProt P03366).
T1 construct: Recombinant purified HIV reverse transcriptase (HIV RT) was from Worthington Biochemical Corp; purchased Worthington Biochemical Corp (Lakewood, N.J.)
The experiment can be described thus: Biolayer interferometry binding of HIV RT, dNTP and NNRTI to primer-template biosensor (Example 8). As to conditions: 100 μM dNTP, 100 nM HIV RT, association phase. More on the design: species or system HIV-1. Here is the method:
Uncompetitive NNRTI compounds (Pitta et al., J. Enzyme Inhib. Med. Chem. 28(10): 113-22 (2013)), which is incorporated by reference herein in its entirety), were from Epigen Biosciences, Inc. (San Diego, Calif.). NNRTI compounds 7 (3-4-chloro-benzo[d]thiazol-2-yl)-2-(2-chloro-6-fluorophenyl)thiazolidin-4-one) and 18 (3-(6-ethoxy-benzo[d]thiazol-2-yl)-2-(2-chloro-6-fluorophenyl)thiazolidin-4-one) were dissolved in dimethylsulfoxide (DMSO) to concentrations of 25.0 mM and 15.0 mM, respectively. Recombinant purified HIV reverse transcriptase (HIV RT) was from Worthington Biochemical Corp (Lakewood, N.J.). Ultra-pure bovine serum albumin (BSA) was from Ambion (Foster City, Calif.). […] Primer-template duplex was diluted (100 μM) into Annealing Buffer. Immediately before use, HIV Reverse Transcriptase was pre-diluted into Enzyme Diluent (50 mM Tris buffer (pH 8.0), 8 mM MgCl2). […] NNRTI compounds were pre-diluted with DMSO immediately before being spiked into Binding Buffer. Reaction Buffer was Binding Buffer without NNRTI, dNTP or HIV RT enzyme. […] Biosensors were transferred to Binding Buffer containing HIV RT and dCTP+NNRTI (association phase) followed by Reaction Buffer (dCTP incorporation and dissociation phase). […] Cycles of binding and incorporation were repeated multiple times. […]
For orientation: BLI is a label-free optical method that tracks binding on a fibre tip over time.

For experiment [2], the system named is Nucleic Acid:Polymerase Complex. The experiment can be described thus: Stabilization of nucleic acid:polymerase complex in wash buffer (Example 6). The format is binding. To be noted: 3.5 mM Sr2+ in wash buffer (LS buffer). Here is the method:
To minimize the possibility of multiple incorporations in a homopolymer region, a wash step can be performed before incorporation. Metal cations such as calcium and strontium can stabilize the polymerase complex (like magnesium), but cannot support catalysis of the phosphodiester bond which results in incorporation of the nucleotide. In this experiment, varying concentrations of SrCl2 (0 mM-14 mM) were added to the wash buffer (LS buffer).

Experiment [3] has as its target Klenow (3′→5′ exo(−)) fragment of E. coli DNA polymerase (Escherichia coli, UniProt P00582, D355A/E357A). As to conditions: divalent cation 2.0 mM (CoCl2 1.0 mM) in Binding Buffer; 100 μM dCTP.

Sequence of Klenow (3′→5′ exo(−)) fragment of E. coli DNA polymerase (P00582 324-928 D355A/E357A limits assumed): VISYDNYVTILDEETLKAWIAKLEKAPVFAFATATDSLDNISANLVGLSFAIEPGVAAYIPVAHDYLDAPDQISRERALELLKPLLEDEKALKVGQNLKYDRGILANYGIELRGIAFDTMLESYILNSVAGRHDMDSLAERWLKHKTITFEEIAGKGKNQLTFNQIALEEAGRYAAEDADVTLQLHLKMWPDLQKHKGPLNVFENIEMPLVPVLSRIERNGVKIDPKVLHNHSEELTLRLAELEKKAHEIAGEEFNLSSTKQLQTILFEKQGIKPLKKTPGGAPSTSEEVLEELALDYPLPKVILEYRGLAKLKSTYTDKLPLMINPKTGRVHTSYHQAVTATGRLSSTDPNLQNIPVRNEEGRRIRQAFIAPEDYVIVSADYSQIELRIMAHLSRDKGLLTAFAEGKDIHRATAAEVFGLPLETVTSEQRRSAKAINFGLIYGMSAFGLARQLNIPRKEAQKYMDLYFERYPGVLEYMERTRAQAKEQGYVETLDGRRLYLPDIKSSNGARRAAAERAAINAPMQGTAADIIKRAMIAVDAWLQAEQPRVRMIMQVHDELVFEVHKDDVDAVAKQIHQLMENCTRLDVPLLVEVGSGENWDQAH

For the compound `CCOc1ccc2nc(N3C(=O)CSC3c3c(F)cccc3Cl)sc2c1` (stereo not shown) [NNRTI compound 18, 3-(6-ethoxy-benzo[d]thiazol-2-yl)-2-(2-chloro-6-fluorophenyl)thiazolidin-4-one], in experiment [1] (NNRTI 80 μM), the “binding of HIV reverse transcriptase and correct dNTP to biosensor coated with primer-template” value was “distinct peaks for binding”. As to `O=C1CSC(c2c(F)cccc2Cl)N1c1nc2c(Cl)cccc2s1` (stereo not shown) [NNRTI compound 7], in experiment [1] (NNRTI 40 μM), the “binding of HIV reverse transcriptase and correct dNTP to biosensor coated with primer-template” value is “distinct peaks for binding”. As for `[Cl-].[Cl-].[Sr+2]` [SrCl2, Strontium chloride], the “stability of polymerase complex in wash buffer” value in experiment [2] is listed as “much more stable”. Also, the “binding of Klenow exo(−) and dCTP to biosensor coated with ssDNA primer-template” value in experiment [3] is “bound strongly”.

The record behind these values is US11168364B2, “Method and system for sequencing nucleic acids” (priority 2016, dated 2021).
